According to patent US10226464B2, “Small molecule NF-κB inhibitors” (ImmuneTarget, Inc., priority 2015, dated 2019):

Legend:
c-Rel protein = c-Rel protein (Homo sapiens (Human), UniProt Q04864); test: Electrophoretic Mobility Shift Assay (EMSA), Rel/NF-κB DNA binding inhibition; conditions: 10 nM c-Rel protein, phosphor-labeled CD28RE oligonucleotide
Experimental: Electrophoretic Mobility Shift Assay (EMSA)
DNA binding reaction (20 μL) was carried out in 1×DNA Binding Buffer (10 mM Tris, 40 mM NaCl, 1 mM EDTA, 4% glycerol) with 10 nM c-Rel protein and 0.5 ng phosphor-labeled CD28RE oligonucleotide for 10 minutes at room temperature in 96-well plates. Test compounds, in serial dilutions, were added into each well, and further incubated for 15 minutes before loading onto native 5% polyacrylamide gel. Electrophoresis proceeded for 2.5 hours at 160V. Radioactive signals were quantified using Phospho-Imager. IC50 of compounds of example 1 to 75 were determined by quantifying the intensity of Rel/NF-κB inhibition in EMSA using phospho-imager. An example of EMSA data of the present invention is shown for compound 6 in FIG. 2.

NF-κB = NF-κB GFP Assay (NFκB/Jurkat/GFP transcriptional reporter cell line); type: cell-based; conditions: Homo sapiens; NF-κB/Jurkat/GFP reporter cells, TNF-α 5 ng/ml, 24 hours; read-out: NF-KB GFP IC50
Experimental: NFκB/Jurkat/GFP transcriptional reporter cell line was obtained from SBI System Biosciences. NF-κB/Jurkat/GFP™ Reporter cells (5×10^5 cells) were plated at a concentration of 1 million cells/ml into each well of a 24-well plate. TNF-α (5 ng/ml) was added. Compounds were added via serial dilutions to corresponding wells. After 24 hours, 100 μl of the cells were transferred to a well of a Costar® UV plate (96 well, No lid, w/ UV Transparent Flat Bottom, Corning, N.Y., Cat#3635) and the intensity of GFP fluorescence was measured (Excitation 485+/−20, Emission 528+/−20) in a Synergy™ HT Multi-Detection Microplate Reader (BioTech, Winooski, Vt.). The intensities of GFP measured were plotted against the […].

Sequence of c-Rel protein (Q04864 whole entry): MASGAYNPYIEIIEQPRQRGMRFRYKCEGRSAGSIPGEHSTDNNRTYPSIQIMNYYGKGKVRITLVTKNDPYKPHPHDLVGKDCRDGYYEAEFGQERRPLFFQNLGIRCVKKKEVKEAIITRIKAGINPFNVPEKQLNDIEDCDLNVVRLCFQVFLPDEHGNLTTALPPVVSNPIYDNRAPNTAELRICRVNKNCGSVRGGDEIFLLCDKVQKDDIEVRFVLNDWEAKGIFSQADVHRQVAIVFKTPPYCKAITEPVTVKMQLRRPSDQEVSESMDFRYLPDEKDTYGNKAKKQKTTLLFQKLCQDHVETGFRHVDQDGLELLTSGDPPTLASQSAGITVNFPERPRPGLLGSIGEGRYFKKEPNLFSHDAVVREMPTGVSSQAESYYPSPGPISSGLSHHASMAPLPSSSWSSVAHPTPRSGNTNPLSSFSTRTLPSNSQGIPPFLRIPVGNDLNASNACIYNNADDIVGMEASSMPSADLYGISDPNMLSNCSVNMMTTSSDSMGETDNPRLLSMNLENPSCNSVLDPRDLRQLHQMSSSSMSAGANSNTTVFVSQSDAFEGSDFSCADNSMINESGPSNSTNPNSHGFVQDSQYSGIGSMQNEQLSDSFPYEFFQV

| SMILES | IC50 (c-Rel protein) | IC50 (NF-κB) |
| --- | --- | --- |
| COc1cccc2cc3c(=O)[nH]c(=O)nc-3oc12 [Compound 1, 9-methoxy-2H-chromeno[2,3-d]pyrimidine-2,4(3H)-dione] | < 2000 nM | < 30000 nM |
| CCOc1cccc2cc3c(=O)[nH]c(=O)nc-3oc12 [Compound 2, 9-ethoxy-2H-chromeno[2,3-d]pyrimidine-2,4(3H)-dione] | < 2000 nM | < 30000 nM |
| COc1cc(Cl)cc2cc3c(=O)[nH]c(=O)nc-3oc12 [Compound 3, 7-chloro-9-methoxy-2H-chromeno[2,3-d]pyrimidine-2,4(3H)-dione] | < 2000 nM | < 30000 nM |
| COc1cc(Br)cc2cc3c(=O)[nH]c(=O)nc-3oc12 [Compound 4, 7-bromo-9-methoxy-2H-chromeno[2,3-d]pyrimidine-2,4(3H)-dione] | < 2000 nM | < 30000 nM |
| CCOc1cc(Cl)cc2cc3c(=O)[nH]c(=O)nc-3oc12 [Compound 5] | < 2000 nM | < 30000 nM |
| COc1ccc2cc3c(=O)[nH]c(=O)nc-3oc2c1 [Compound 6, 8-methoxy-2H-chromeno[2,3-d]pyrimidine-2,4(3H)-dione] | < 1000 nM | < 10000 nM |
| COc1cc(Cl)cc2cc3c(=O)[nH]c(=S)nc-3oc12 [Compound 7, 7-chloro-9-methoxy-2-thioxo-2H-chromeno[2,3-d]pyrimidin-4(3H)-one] | < 2000 nM | < 30000 nM |
| COc1ccc2cc3c(=O)[nH]c(=S)nc-3oc2c1 [Compound 8, 8-methoxy-2-thioxo-2H-chromeno[2,3-d]pyrimidin-4(3H)-one] | < 500 nM | < 30000 nM |
| O=c1nc2oc3ccccc3cc-2c(=O)[nH]1 [Compound 9, 2H-chromeno[2,3-d]pyrimidine-2,4(3H)-dione] | < 5000 nM | < 20000 nM |
| COc1ccc2oc3nc(=O)[nH]c(=O)c-3cc2c1 [Compound 10, 7-methoxy-2H-chromeno[2,3-d]pyrimidine-2,4(3H)-dione] | < 1000 nM | < 30000 nM |
| O=c1nc2oc3cc(O)ccc3cc-2c(=O)[nH]1 [Compound 11, 8-hydroxy-2H-chromeno[2,3-d]pyrimidine-2,4(3H)-dione] | < 1000 nM | < 20000 nM |
| Cc1ccc2cc3c(=O)[nH]c(=O)nc-3oc2c1 [Compound 12, 8-methyl-2H-chromeno[2,3-d]pyrimidine-2,4(3H)-dione] | < 1000 nM | 7000 nM |
| CCOc1ccc2cc3c(=O)[nH]c(=O)nc-3oc2c1 [Compound 13, 8-ethoxy-2H-chromeno[2,3-d]pyrimidine-2,4(3H)-dione] | < 1000 nM | 9000 nM |
| COc1cc(OC)c2cc3c(=O)[nH]c(=O)nc-3oc2c1 [Compound 14, 6,8-dimethoxy-2H-chromeno[2,3-d]pyrimidine-2,4(3H)-dione] | < 1000 nM | 8200 nM |
| COc1ccc2oc3nc(=S)[nH]c(=O)c-3cc2c1 [Compound 15, 7-methoxy-2-thioxo-2H-chromeno[2,3-d]pyrimidin-4(3H)-one] | < 500 nM | < 30000 nM |
| O=c1[nH]c(=S)nc2oc3cc(O)ccc3cc1-2 [Compound 16, 8-hydroxy-2-thioxo-2H-chromeno[2,3-d]pyrimidin-4(3H)-one] | < 500 nM | < 30000 nM |
| Cc1ccc2cc3c(=O)[nH]c(=S)nc-3oc2c1 [Compound 17, 8-methyl-2-thioxo-2H-chromeno[2,3-d]pyrimidin-4(3H)-one] | < 500 nM | < 30000 nM |
| COc1cc(OC)c2cc3c(=O)[nH]c(=S)nc-3oc2c1 [Compound 18, 6,8-dimethoxy-2-thioxo-2H-chromeno[2,3-d]pyrimidin-4(3H)-one] | < 500 nM | – |
| CCCOc1ccc2cc3c(=O)[nH]c(=O)nc-3oc2c1 [Compound 19, 8-propoxy-2H-chromeno[2,3-d]pyrimidine-2,4(3H)-dione] | < 1000 nM | < 5000 nM |
| CCCOc1cc2oc3nc(=O)[nH]c(=O)c-3cc2cc1Cl [Compound 20, 7-chloro-8-propoxy-2H-chromeno[2,3-d]pyrimidine-2,4(3H)-dione] | < 1000 nM | < 5000 nM |
| CC(C)COc1ccc2cc3c(=O)[nH]c(=O)nc-3oc2c1 [Compound 23, 8-isobutoxy-2H-chromeno[2,3-d]pyrimidine-2,4(3H)-dione] | < 1000 nM | < 5000 nM |

Now from value to compound:

| IC50 (c-Rel protein) | IC50 (NF-κB) | SMILES |
| --- | --- | --- |
| < 1000 nM | < 5000 nM | CCCCCCOc1ccc2cc3c(=O)[nH]c(=O)nc-3oc2c1 [Compound 21, 8-(n-hexyloxy)-2H-chromeno[2,3-d]pyrimidine-2,4(3H)-dione] |
| < 1000 nM | < 10000 nM | CCOc1ccc2cc3c(=O)[nH]c(=O)nc-3oc2c1Cl [Compound 22, 9-chloro-8-ethoxy-2H-chromeno[2,3-d]pyrimidine-2,4(3H)-dione] |
| < 1000 nM | < 30000 nM | CCCCn1c(=O)nc2oc3cc(OCC)ccc3cc-2c1=O [Compound 24, 3-(n-butyl)-8-ethoxy-2H-chromeno[2,3-d]pyrimidine-2,4(3H)-dione] |
| < 1000 nM | < 30000 nM | CCCc1cc2oc3nc(=O)[nH]c(=O)c-3cc2cc1Cl [Compound 25, 7-chloro-8-propyl-2H-chromeno[2,3-d]pyrimidine-2,4(3H)-dione] |
| < 1000 nM | < 30000 nM | CCCCn1c(=O)nc2oc3cc(OCC)c(Cl)cc3cc-2c1=O [Compound 26, 3-butyl-7-chloro-8-ethoxy-2H-chromeno[2,3-d]pyrimidine-2,4(3H)-dione] |
| < 500 nM | < 5000 nM | Cc1cc2oc3nc(=O)[nH]c(=O)c-3cc2cc1F [Compound 27, 7-fluoro-8-methyl-2H-chromeno[2,3-d]pyrimidine-2,4(3H)-dione] |
| < 500 nM | < 5000 nM | CCOc1cc2oc3nc(=O)[nH]c(=O)c-3cc2cc1F [Compound 28, 8-ethoxy-7-fluoro-2H-chromeno[2,3-d]pyrimidine-2,4(3H)-dione] |
| < 500 nM | < 5000 nM | CCCCOc1cc2oc3nc(=O)[nH]c(=O)c-3cc2cc1F [Compound 29] |
| < 500 nM | < 10000 nM | CCCCCOc1cc2oc3nc(=O)[nH]c(=O)c-3cc2cc1F [Compound 30] |
| < 500 nM | < 5000 nM | CCCCCCOc1cc2oc3nc(=O)[nH]c(=O)c-3cc2cc1F [Compound 31] |
| < 500 nM | < 5000 nM | CCCCCCCOc1cc2oc3nc(=O)[nH]c(=O)c-3cc2cc1F [Compound 32] |
| < 500 nM | < 3000 nM | CC(C)CCOc1cc2oc3nc(=O)[nH]c(=O)c-3cc2cc1F [Compound 33] |
| < 500 nM | 10000 nM | CC(C)(C)CCOc1cc2oc3nc(=O)[nH]c(=O)c-3cc2cc1F [Compound 34] |
| < 1000 nM | < 10000 nM | CC(C)CCCOc1cc2oc3nc(=O)[nH]c(=O)c-3cc2cc1F [Compound 35] |
| < 500 nM | < 10000 nM | CC(C)(C)COc1cc2oc3nc(=O)[nH]c(=O)c-3cc2cc1F [Compound 36] |
| < 500 nM | < 20000 nM | CCCCCCOc1cc2oc3nc(=O)[nH]c(=O)c-3cc2cc1Cl [Compound 37] |
| < 500 nM | < 20000 nM | CC(C)COc1cc2oc3nc(=O)[nH]c(=O)c-3cc2cc1Cl [Compound 38] |
| < 500 nM | < 3000 nM | CCCCCOc1ccc2cc3c(=O)[nH]c(=O)nc-3oc2c1Cl [Compound 39] |
| < 500 nM | 5000 nM | CC(C)CCOc1ccc2cc3c(=O)[nH]c(=O)nc-3oc2c1Cl [Compound 40] |
| < 500 nM | < 10000 nM | CC(C)(C)CCOc1ccc2cc3c(=O)[nH]c(=O)nc-3oc2c1Cl [Compound 41] |
| < 500 nM | < 10000 nM | CCCCCCCOc1ccc2cc3c(=O)[nH]c(=O)nc-3oc2c1Cl [Compound 42] |
| < 500 nM | < 3000 nM | CCCCOc1ccc2cc3c(=O)[nH]c(=O)nc-3oc2c1Cl [Compound 43] |
| < 500 nM | < 3000 nM | CCCCCCOc1ccc2cc3c(=O)[nH]c(=O)nc-3oc2c1Cl [Compound 44] |
| < 500 nM | < 5000 nM | CCCCOc1ccc2cc3c(=O)[nH]c(=O)nc-3oc2c1F [Compound 45] |
| < 500 nM | < 5000 nM | CCCCCCOc1ccc2cc3c(=O)[nH]c(=O)nc-3oc2c1F [Compound 46] |
| < 1000 nM | < 5000 nM | CC(C)CCCOc1ccc2cc3c(=O)[nH]c(=O)nc-3oc2c1F [Compound 47] |
| < 500 nM | < 5000 nM | CC(C)COc1ccc2cc3c(=O)[nH]c(=O)nc-3oc2c1F [Compound 48] |
| < 1000 nM | < 5000 nM | CCOc1ccc2cc3c(=O)[nH]c(=O)nc-3sc2c1 [Compound 49, 8-ethoxy-2H-thiochromeno[2,3-d]pyrimidine-2,4(3H)-dione] |
| < 1000 nM | < 5000 nM | CCCCOc1ccc2cc3c(=O)[nH]c(=O)nc-3oc2c1 [Compound 50] |
| < 1000 nM | < 5000 nM | CC(=O)OCCCCOc1ccc2cc3c(=O)[nH]c(=O)nc-3oc2c1 [Compound 51] |
